Laboratory results from the NIST ThermoML archive (doi:10.1021/acs.jced.6b00750).

Experiment: xn = mol fraction of the nth substance listed
Settings: Liquid; for mass density: Vibrating wire densiometer; for viscosity: Vibrating wire viscometry

C [methane] + CCCCCCCCCCCCCCCC
Settings | mass density [kg/m3] | viscosity [mPa·s]
298.15 K, 10230 kPa, x1 = 0.1013 | 781.6 | 3.304
298.15 K, 19830 kPa, x1 = 0.1013 | 786.5 | 3.687
298.21 K, 20070 kPa, x1 = 0.2976 | 780.7 | 3.712
298.21 K, 30320 kPa, x1 = 0.2976 | 786 | 4.196
298.22 K, 10040 kPa, x1 = 0.2021 | 775.4 | 3.308
298.22 K, 19950 kPa, x1 = 0.2021 | 781.3 | 3.742
298.33 K, 13910 kPa, x1 = 0.3979 | 781.1 | 3.321
298.33 K, 20030 kPa, x1 = 0.3979 | 784.6 | 3.548
298.33 K, 30040 kPa, x1 = 0.3979 | 791 | 3.938
323.22 K, 10080 kPa, x1 = 0.1013 | 765.4 | 1.993
323.22 K, 20170 kPa, x1 = 0.1013 | 771.2 | 2.205
323.22 K, 40020 kPa, x1 = 0.1013 | 783.4 | 2.69
323.22 K, 60000 kPa, x1 = 0.1013 | 791.6 | 3.255
323.22 K, 78560 kPa, x1 = 0.1013 | 801.7 | 3.927
323.23 K, 20400 kPa, x1 = 0.2976 | 769.6 | 2.151
323.23 K, 21720 kPa, x1 = 0.2976 | 770.4 | 2.147
323.23 K, 21740 kPa, x1 = 0.2976 | 770.3 | 2.146
323.23 K, 40220 kPa, x1 = 0.2976 | 781.5 | 2.597
323.23 K, 60040 kPa, x1 = 0.2976 | 791.5 | 3.162
323.23 K, 79910 kPa, x1 = 0.2976 | 800.3 | 3.859
323.26 K, 14530 kPa, x1 = 0.3979 | 763.7 | 1.887
323.26 K, 14750 kPa, x1 = 0.3979 | 763.9 | 1.918
323.26 K, 20040 kPa, x1 = 0.3979 | 766.5 | 2.058
323.26 K, 40050 kPa, x1 = 0.3979 | 778.7 | 2.56
323.32 K, 10010 kPa, x1 = 0.2021 | 756.6 | 1.901
323.32 K, 20100 kPa, x1 = 0.2021 | 763.2 | 2.147
323.32 K, 39150 kPa, x1 = 0.2021 | 775.8 | 2.576
373.2 K, 10050 kPa, x1 = 0.2021 | 721.1 | 0.926
373.2 K, 12610 kPa, x1 = 0.2021 | 723.4 | 0.951
373.2 K, 20020 kPa, x1 = 0.2021 | 729.5 | 1.037
373.2 K, 40260 kPa, x1 = 0.2021 | 744.4 | 1.27
373.2 K, 60350 kPa, x1 = 0.2021 | 757.1 | 1.521
373.2 K, 65050 kPa, x1 = 0.2021 | 759.8 | 1.586
373.26 K, 10000 kPa, x1 = 0.1013 | 732.3 | 0.967
373.26 K, 20170 kPa, x1 = 0.1013 | 740.6 | 1.112
373.26 K, 40110 kPa, x1 = 0.1013 | 754.5 | 1.334
373.26 K, 60080 kPa, x1 = 0.1013 | 767.4 | 1.571
373.26 K, 80130 kPa, x1 = 0.1013 | 777.3 | 1.897
373.41 K, 24090 kPa, x1 = 0.2976 | 738.5 | 1.04
373.41 K, 24100 kPa, x1 = 0.2976 | 738.2 | 1.038
373.41 K, 40140 kPa, x1 = 0.2976 | 749.9 | 1.222
373.41 K, 60030 kPa, x1 = 0.2976 | 762.2 | 1.465
373.41 K, 80100 kPa, x1 = 0.2976 | 773.7 | 1.749
373.47 K, 16680 kPa, x1 = 0.3979 | 730.1 | 0.921
373.47 K, 16740 kPa, x1 = 0.3979 | 729.9 | 0.942
373.47 K, 20010 kPa, x1 = 0.3979 | 732.4 | 0.97
373.47 K, 40020 kPa, x1 = 0.3979 | 747.6 | 1.17
373.47 K, 54720 kPa, x1 = 0.3979 | 756.7 | 1.365
373.47 K, 56030 kPa, x1 = 0.3979 | 757.3 | 1.364
423.24 K, 10310 kPa, x1 = 0.2021 | 686.8 | 0.557
423.24 K, 10870 kPa, x1 = 0.2021 | 687.6 | 0.556
423.24 K, 10900 kPa, x1 = 0.2021 | 687.1 | 0.557
423.24 K, 20030 kPa, x1 = 0.2021 | 697.4 | 0.625
423.24 K, 40040 kPa, x1 = 0.2021 | 715.6 | 0.762
423.24 K, 60080 kPa, x1 = 0.2021 | 730.3 | 0.912
423.24 K, 80150 kPa, x1 = 0.2021 | 743.2 | 1.067
423.31 K, 15700 kPa, x1 = 0.1013 | 707.2 | 0.611
423.31 K, 20010 kPa, x1 = 0.1013 | 711.8 | 0.643
423.31 K, 40030 kPa, x1 = 0.1013 | 728 | 0.816
423.31 K, 60000 kPa, x1 = 0.1013 | 744.5 | –
423.31 K, 80070 kPa, x1 = 0.1013 | 754.2 | 1.133
423.58 K, 20510 kPa, x1 = 0.2976 | 703.1 | 0.612
423.58 K, 20550 kPa, x1 = 0.2976 | 703.3 | 0.606
423.58 K, 22750 kPa, x1 = 0.2976 | 705.4 | 0.618
423.58 K, 40090 kPa, x1 = 0.2976 | 720.8 | 0.734
423.58 K, 60240 kPa, x1 = 0.2976 | 735.9 | 0.873
423.58 K, 80360 kPa, x1 = 0.2976 | 748.5 | 1.03
423.94 K, 16530 kPa, x1 = 0.3979 | 696.8 | 0.565
423.94 K, 16610 kPa, x1 = 0.3979 | 697.1 | 0.555
423.94 K, 20030 kPa, x1 = 0.3979 | 700.1 | 0.587
423.94 K, 40010 kPa, x1 = 0.3979 | 718.3 | 0.717
423.94 K, 56150 kPa, x1 = 0.3979 | 730.8 | 0.822
473.17 K, 40030 kPa, x1 = 0.1013 | 705.1 | 0.591
473.17 K, 60040 kPa, x1 = 0.1013 | 721.8 | 0.687
473.17 K, 80060 kPa, x1 = 0.1013 | 735.5 | 0.794
473.36 K, 12980 kPa, x1 = 0.2021 | 656.9 | 0.388
473.36 K, 13010 kPa, x1 = 0.2021 | 656.8 | 0.387
473.36 K, 20070 kPa, x1 = 0.2021 | 666.6 | 0.425
473.36 K, 40070 kPa, x1 = 0.2021 | 688.4 | 0.53
473.36 K, 60040 kPa, x1 = 0.2021 | 706.1 | 0.627
473.36 K, 80030 kPa, x1 = 0.2021 | 720.5 | 0.732
473.4 K, 24480 kPa, x1 = 0.2976 | 676.6 | 0.431
473.4 K, 24500 kPa, x1 = 0.2976 | 676.6 | 0.427
473.4 K, 40130 kPa, x1 = 0.2976 | 693.5 | 0.501
473.4 K, 60110 kPa, x1 = 0.2976 | 710.7 | 0.6
473.4 K, 79930 kPa, x1 = 0.2976 | 724.7 | 0.717
473.68 K, 22720 kPa, x1 = 0.3979 | 673.5 | 0.42
473.68 K, 25730 kPa, x1 = 0.3979 | 676.9 | 0.435
473.68 K, 40080 kPa, x1 = 0.3979 | 692.4 | 0.502
473.68 K, 60000 kPa, x1 = 0.3979 | 709.8 | 0.596
473.68 K, 80230 kPa, x1 = 0.3979 | 724.2 | 0.704
